Values joined by “and” are separate entries in the source; they are usually repeats but may differ in a detail not shown here. Identical values can stand only once.
Target: KCNQ2/KCNQ3* (Homo sapiens, UniProt O43525+O43526, A315T)
Assay: Two-electrode voltage clamp of KCNQ2+KCNQ3* in Xenopus oocytes
Type: cell-based
Details: Q2/Q3*, individual oocytes
From the text: KCNQ2 and KCNQ3 form a channel complex that carries M currents in neurons. Similar to KCNQ1, these KCNQ subunits require PIP2 for voltage-dependent activation. KCNQ2 alone can express functional channels in Xenopus oocytes, while KCNQ3 alone cannot. However, a single mutation, A315T, allows KCNQ3 to functionally express in Xenopus oocytes. We examined the effects of CP1 on KCNQ2, KCNQ3 with mutation A315T (denoted as KCNQ3*), KCNQ2+KCNQ3, and KCNQ2+KCNQ3* expressed in Xenopus oocytes (Fig. 5a). Similar to the effects on KCNQ1 and IKs channels, CP1 changed the amplitude of currents (Fig. 5b), shifted the G–V relation to more negative voltages (Fig. 5c), and slowed the deactivation kinetics (Fig. 5d) for all of these KCNQ channels. These CP1 effects were relatively small on KCNQ2 as compared with those on other KCNQ channels, and the effects on KCNQ2/KCNQ3* and KCNQ2/KCNQ3 complexes were closer to those on KCNQ2 alone.
Fig. 5 Subtype selectivity of CP1 on KCNQ channels. a Current traces of KCNQ channels as indicated in the absence and the presence of 10 µM CP1. […]
The whole-oocyte ionic currents were recorded with a GeneClamp 500B amplifier (Axon Instruments, CA) or iTEV90 amplifier (HEKA, Germany) and then sampled at 1 kHz and low-pass-filtered at 2 kHz. […] The Kir1.1 current was recorded with a high K^+ bath solution containing (in mM) 96 KCl, 4 NaCl, 1 CaCl2, 2 MgCl2, and 10 HEPES, pH 7.3–7.4. The HCN4 current was recorded in ND66 solution containing (in mM) 66 NaCl, 32 KCl, 1.8 CaCl2, 1 MgCl2, and 5 HEPES, pH 7.6. All the other potassium channels were recorded in ND96 solution. The currents of CaV1.2 channel were recorded in 40 mM Ba^2+ bath solution containing (in mM) 40 Ba(OH)2, 50 TEA-OH, 2 KOH, and 5 HEPES, adjusted to pH 7.4 with methanesulfonic acid. […] The HCN4 currents were recorded by a test pulse between −30 and −140 mV in 10-mV step from a holding potential of −30 mV. […]

O=S(=O)([O-])Oc1c(-c2sc3c(ccc4cccc(Cl)c43)c2OS(=O)(=O)[O-])[nH]c2ccc(Br)cc12.[Na+].[Na+] [CP1, DISODIUM 5-BROMO-2-[9-CHLORO-3-(SULFONATOOXY) NAPHTHO [1,2-B] THIEN-2-YL]-1H-INDOL-3-YL SULFATE]
outward current (Icp1/Ictrl) (10 µM CP1, at −10 mV): 1.1575 and 0.9892 and 1.0474 and 1.088 | ∆V1/2 (10 µM CP1): 15.9435 mV and 15.3238 mV and 21.3532 mV and 15.8237 mV | τ deact at -120 mV (10 µM CP1 treated): 0.0814 s and 0.0836 s and 0.1825 s and 0.1031 s and 0.1951 s

— paper PMC7367283, “A PIP2 substitute mediates voltage sensor-pore coupling in KCNQ activation” (Communications Biology, 2020)
